Measurements published in the NIST ThermoML archive (doi:10.1021/je1002829).

Assay: xn = mol fraction of the nth substance listed
Conditions: for mass density: 101 kPa, Liquid, Pycnometric method

CCCC(=O)O [butanoic acid] + O
Conditions	mass density, 293.15 K [kg/m3]	mass density, 298.15 K [kg/m3]	mass density, 303.15 K [kg/m3]	mass density, 308.15 K [kg/m3]	surface tension liquid-gas, 293.15 K [mN/m]	surface tension liquid-gas, 298.15 K [mN/m]	surface tension liquid-gas, 303.15 K [mN/m]	surface tension liquid-gas, 308.15 K [mN/m]
x1 = 0.00475	–	–	–	–	50.5	50.01	49.13	48.56
x1 = 0.00655	–	–	–	–	45.88	45.32	44.7	44.05
x1 = 0.00903	–	–	–	–	41.59	40.95	40.38	39.72
x1 = 0.00998	–	–	–	–	40.32	39.69	39.11	38.47
x1 = 0.01274	–	–	–	–	37.41	36.84	36.24	35.68
x1 = 0.01432	–	–	–	–	36.11	35.6	34.99	34.5
x1 = 0.01655	1002.55	1000.29	998.03	995.86	34.6	34.16	33.58	33.16
x1 = 0.02141	1003.38	1001.03	998.67	996.41	–	–	–	–
x1 = 0.03346	1004.38	1001.93	999.47	997.11	29.28	28.91	28.59	28.45
x1 = 0.03727	1004.49	1001.94	999.38	996.93	–	–	–	–
x1 = 0.04522	1004.3	1001.66	999.01	996.46	28.48	28.33	28.14	27.95
x1 = 0.04995	1004.13	1001.39	998.64	995.99	–	–	–	–
x1 = 0.05825	1003.61	1000.77	997.92	995.18	28.46	28.38	28.1	27.87
x1 = 0.06959	1002.83	999.9	996.96	994.11	–	–	–	–
x1 = 0.07723	1002.34	999.13	995.79	992.85	–	–	–	–
x1 = 0.08723	–	–	–	–	28.61	28.3	27.92	27.72
x1 = 0.09004	1001.61	998.48	995.24	991.96	–	–	–	–
x1 = 0.09948	1001.12	997.91	994.7	991.51	28.52	28.24	27.88	27.67
x1 = 0.1147	–	–	–	–	28.39	28.17	27.84	27.63
x1 = 0.1172	1000.27	996.95	993.63	990.42	–	–	–	–
x1 = 0.131	999.59	996.11	992.63	989.31	–	–	–	–
x1 = 0.134	–	–	–	–	28.24	28.1	27.82	27.58
x1 = 0.1428	–	–	–	–	28.19	28.07	27.81	27.56
x1 = 0.1443	998.82	995.31	991.8	988.32	–	–	–	–
x1 = 0.1767	997.16	993.56	989.96	986.45	28.21	28.01	27.79	27.47
